Measurements published in ChEMBL document CHEMBL1201862, “PubChem BioAssay data set” (2004).
The source made the active and inactive calls.

Tests used:
Cytochrome P450 2D6 = Cytochrome P450 2D6 (Homo sapiens, UniProt P10635);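 also: CYP2D6 member of a cytochrome P450 panel assay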
Cytochrome P450 3A4 = Cytochrome P450 3A4 (Homo sapiens, UniProt P08684);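 also: CYP3A4 tested as one member of a cytochrome P450 panel screen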
Cytochrome P450 2C9 = Cytochrome P450 2C9 (Homo sapiens, UniProt P11712)
Cytochrome P450 2C19 = Cytochrome P450 2C19 (Homo sapiens, UniProt P33261); test: Cytochrome panel assay with activity outcomes. Panel member name: p450-cyp2c19 Compounds with AC50 equal or less than 10 uM are considered active; type: functional
Cytochrome P450 2C19, sequence (P33261 whole entry): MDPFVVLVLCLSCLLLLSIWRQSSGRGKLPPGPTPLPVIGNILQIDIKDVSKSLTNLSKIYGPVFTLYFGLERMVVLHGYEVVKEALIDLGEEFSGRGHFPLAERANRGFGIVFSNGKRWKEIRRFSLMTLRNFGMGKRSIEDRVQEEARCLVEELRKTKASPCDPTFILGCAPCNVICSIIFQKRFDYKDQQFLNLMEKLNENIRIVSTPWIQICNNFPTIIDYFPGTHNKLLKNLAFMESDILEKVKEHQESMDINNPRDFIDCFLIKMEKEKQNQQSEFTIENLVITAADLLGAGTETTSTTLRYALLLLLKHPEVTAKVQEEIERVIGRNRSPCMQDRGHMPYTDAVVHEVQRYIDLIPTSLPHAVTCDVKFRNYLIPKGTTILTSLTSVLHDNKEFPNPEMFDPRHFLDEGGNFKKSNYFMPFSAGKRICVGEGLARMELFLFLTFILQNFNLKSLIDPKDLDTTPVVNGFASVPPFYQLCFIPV

Cytochrome P450 1A2 [1] = molecular target: T1, Cytochrome P450 1A2 (Homo sapiens, UniProt P05177);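 also: PubChem cytochrome P450 panel assay, CYP1A2 panel member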
T1 sequence (P05177 whole entry): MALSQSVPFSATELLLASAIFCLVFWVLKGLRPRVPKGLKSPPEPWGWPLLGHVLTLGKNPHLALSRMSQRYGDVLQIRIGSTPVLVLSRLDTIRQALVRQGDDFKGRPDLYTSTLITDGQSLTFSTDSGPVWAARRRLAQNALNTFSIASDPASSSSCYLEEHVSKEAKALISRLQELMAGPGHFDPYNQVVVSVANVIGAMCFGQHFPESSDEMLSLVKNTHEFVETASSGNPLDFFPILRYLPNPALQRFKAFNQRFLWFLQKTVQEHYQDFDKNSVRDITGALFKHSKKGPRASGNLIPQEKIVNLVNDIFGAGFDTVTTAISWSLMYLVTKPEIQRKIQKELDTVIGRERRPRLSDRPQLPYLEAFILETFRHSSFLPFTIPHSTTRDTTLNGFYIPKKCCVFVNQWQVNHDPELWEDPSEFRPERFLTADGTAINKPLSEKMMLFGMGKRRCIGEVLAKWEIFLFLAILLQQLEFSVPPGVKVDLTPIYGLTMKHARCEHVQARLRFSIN

[2] = molecular target: T2, Nuclear receptor subfamily 0 group B member 1 (Homo sapiens, UniProt P51843); test: Luminescence-based cell-based high throughput dose response assay for inhibitors of the orphan nuclear receptor subfamily 0, group B, member 1 (DAX1; NR0B1). [Related pubchem assays (depositor defined):AID504766, AID504790]; type: functional
T2 sequence (P51843 whole entry): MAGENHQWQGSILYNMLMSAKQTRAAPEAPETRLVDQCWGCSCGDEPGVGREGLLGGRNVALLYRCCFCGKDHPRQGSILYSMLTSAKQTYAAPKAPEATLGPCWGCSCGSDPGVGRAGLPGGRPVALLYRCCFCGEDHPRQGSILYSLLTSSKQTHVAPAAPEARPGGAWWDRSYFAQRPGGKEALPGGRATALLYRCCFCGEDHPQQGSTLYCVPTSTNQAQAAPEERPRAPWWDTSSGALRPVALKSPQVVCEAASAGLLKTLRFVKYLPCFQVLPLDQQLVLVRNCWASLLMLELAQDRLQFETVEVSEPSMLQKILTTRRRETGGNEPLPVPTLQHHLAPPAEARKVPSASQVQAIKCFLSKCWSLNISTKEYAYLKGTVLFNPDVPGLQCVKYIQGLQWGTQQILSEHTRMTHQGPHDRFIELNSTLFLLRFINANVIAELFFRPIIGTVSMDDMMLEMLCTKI

HEK293 [3] = test: cells; type: functional, cell-based; conditions: Homo sapiens
HEK293 [4] = test: NOD1 signaling inhibitors, primary screen, cell-based, luminescence, uHTS (AID 1578); type: functional; conditions: Homo sapiens
[5] = inhibitors of firefly luciferase expression or activity, dose response, H4 neuroglioma cells, luminescence (AID 1990); type: functional, cell-based
HEK293 [6] = test: cells; type: functional, cell-based; conditions: Homo sapiens; remark: listed apart in the source
HEK293 [7] = test: cells; type: functional, cell-based; conditions: Homo sapiens; remark: listed apart in the source
HEK293 [8] = test: cells; type: functional, cell-based; conditions: Homo sapiens; remark: listed apart in the source
HEK293 [9] = test: NOD2 signaling inhibitors in MDP-stimulated cells, cell-based, uHTS, luminescence (AID 2001); type: functional; conditions: Homo sapiens
[10] = molecular target: Nucleotide-binding oligomerization domain-containing protein 2 (Homo sapiens, UniProt Q9HC29); test: NOD2 signaling inhibitors, cell-based, luminescence, uHTS, HEK293 (AID 1566); type: functional
Nucleotide-binding oligomerization domain-containing protein 2, sequence (Q9HC29 whole entry, the tested form may be a part): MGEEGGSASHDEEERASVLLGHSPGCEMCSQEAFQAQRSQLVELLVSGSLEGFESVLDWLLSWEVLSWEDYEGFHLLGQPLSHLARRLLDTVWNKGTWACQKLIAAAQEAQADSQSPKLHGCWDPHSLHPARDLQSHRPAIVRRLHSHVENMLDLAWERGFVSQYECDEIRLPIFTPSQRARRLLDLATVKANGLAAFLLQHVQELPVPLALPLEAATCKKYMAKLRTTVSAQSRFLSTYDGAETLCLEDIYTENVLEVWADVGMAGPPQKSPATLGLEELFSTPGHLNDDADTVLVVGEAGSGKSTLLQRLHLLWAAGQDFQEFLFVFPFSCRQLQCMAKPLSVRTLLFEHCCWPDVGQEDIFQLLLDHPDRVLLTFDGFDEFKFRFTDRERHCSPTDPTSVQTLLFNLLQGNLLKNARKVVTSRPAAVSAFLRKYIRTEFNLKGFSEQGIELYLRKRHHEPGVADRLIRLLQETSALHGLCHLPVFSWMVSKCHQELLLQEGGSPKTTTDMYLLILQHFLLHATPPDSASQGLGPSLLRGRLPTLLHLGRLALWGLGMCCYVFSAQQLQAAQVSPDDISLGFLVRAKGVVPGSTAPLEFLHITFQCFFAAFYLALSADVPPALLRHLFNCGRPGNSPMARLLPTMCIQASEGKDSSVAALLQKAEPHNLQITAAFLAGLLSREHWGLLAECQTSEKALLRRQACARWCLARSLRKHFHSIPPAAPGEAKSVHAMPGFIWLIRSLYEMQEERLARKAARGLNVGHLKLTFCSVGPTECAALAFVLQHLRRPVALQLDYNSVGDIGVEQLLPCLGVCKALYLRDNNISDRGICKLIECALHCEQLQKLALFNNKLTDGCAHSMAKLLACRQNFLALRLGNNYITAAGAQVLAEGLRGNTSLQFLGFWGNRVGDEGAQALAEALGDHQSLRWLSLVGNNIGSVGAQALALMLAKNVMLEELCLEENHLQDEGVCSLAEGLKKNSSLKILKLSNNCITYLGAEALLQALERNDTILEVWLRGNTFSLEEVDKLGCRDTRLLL

[11] = inhibitors of SNCA 5'UTR-driven reporter translation, confirmation, H4 neuroglioma cells, luminescence (AID 1988); type: functional, cell-based
[12] = Luminescence Cell-Based Dose Response HTS to Identify Inhibitors of 5'UTR Stem-Loop Driven Prion Protein mRNA Translation in H4 Neuroglioblastoma Cells. [Related pubchem assays: 1827 (Project Summary), 1813 (Primary HTS)]; type: functional
Keap1/Nrf2 = Keap1/Nrf2 (Homo sapiens, UniProt Q14145); test: Keap1-Nrf2 protein-protein interaction inhibitors, dose response, biochemical, fluorescence polarization, cherry-picked samples (AID 588683)
Keap1/Nrf2, sequence (Q16236 whole entry): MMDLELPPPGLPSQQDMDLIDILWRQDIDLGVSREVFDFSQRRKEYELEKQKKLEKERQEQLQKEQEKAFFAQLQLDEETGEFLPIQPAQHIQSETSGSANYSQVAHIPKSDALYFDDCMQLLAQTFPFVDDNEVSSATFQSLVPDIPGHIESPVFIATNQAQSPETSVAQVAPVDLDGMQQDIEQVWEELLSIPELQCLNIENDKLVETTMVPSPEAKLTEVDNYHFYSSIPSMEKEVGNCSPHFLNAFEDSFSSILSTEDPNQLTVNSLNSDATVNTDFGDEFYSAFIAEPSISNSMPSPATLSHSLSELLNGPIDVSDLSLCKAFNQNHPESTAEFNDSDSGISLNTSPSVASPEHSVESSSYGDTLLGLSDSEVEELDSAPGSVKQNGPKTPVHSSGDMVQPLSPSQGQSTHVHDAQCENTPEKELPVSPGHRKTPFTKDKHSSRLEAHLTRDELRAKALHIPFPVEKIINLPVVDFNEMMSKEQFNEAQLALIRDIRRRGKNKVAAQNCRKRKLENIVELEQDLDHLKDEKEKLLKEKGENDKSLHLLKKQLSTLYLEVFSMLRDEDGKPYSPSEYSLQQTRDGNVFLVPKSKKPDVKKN
Keap1/Nrf2, sequence (Q14145 whole entry): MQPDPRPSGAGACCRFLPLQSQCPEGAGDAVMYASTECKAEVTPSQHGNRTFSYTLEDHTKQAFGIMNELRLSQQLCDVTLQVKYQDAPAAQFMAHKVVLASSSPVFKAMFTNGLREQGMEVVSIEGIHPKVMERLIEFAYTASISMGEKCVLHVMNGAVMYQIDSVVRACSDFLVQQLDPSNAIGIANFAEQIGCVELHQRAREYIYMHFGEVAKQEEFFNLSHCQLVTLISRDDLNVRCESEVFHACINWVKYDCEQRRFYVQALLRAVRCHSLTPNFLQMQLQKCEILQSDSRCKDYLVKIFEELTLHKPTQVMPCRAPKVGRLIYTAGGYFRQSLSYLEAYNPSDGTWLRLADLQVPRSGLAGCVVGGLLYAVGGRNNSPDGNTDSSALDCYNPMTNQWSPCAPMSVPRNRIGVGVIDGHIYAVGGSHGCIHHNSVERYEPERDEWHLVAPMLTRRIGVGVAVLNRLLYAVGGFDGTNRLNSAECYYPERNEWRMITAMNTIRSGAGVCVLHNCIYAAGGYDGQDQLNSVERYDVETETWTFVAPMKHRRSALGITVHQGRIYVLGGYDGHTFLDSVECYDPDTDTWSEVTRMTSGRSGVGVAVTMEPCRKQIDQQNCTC

[13] = molecular target: UDP-galactopyranose mutase (Mycobacterium tuberculosis, UniProt P9WIQ1); test: Inhibitors of Mycobacterium tuberculosis UDP-galactopyranose mutase (UGM) enzyme Measured in Biochemical System Using Plate Reader - 2105-02_Inhibitor_Dose_CherryPick_Activity. [Related pubchem assays (depositor defined):AID504439]
UDP-galactopyranose mutase, sequence (P9WIQ1 whole entry, the tested form may be a part): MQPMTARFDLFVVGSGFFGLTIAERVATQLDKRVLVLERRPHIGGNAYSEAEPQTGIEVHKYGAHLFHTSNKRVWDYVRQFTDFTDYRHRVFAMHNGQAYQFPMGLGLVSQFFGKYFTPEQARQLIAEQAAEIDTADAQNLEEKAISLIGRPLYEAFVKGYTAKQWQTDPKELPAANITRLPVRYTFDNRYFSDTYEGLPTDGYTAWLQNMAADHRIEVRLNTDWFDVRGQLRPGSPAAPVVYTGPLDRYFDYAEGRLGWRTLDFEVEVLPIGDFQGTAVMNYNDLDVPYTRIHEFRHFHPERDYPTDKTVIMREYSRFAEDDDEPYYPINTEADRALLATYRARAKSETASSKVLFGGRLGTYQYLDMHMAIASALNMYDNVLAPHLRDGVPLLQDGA

[14] = molecular target: T3, RNA-binding protein pos-1 (Caenorhabditis elegans, UniProt G5EF15); test: inhibitors of POS-1/mex-3 RNA binding, dose response, biochemical, fluorescence polarization (AID 1964);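 also: purified POS-1 fused to maltose binding protein made in E. coli; potency of compounds blocking POS-1 binding to fluorescent RNA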
T3 sequence (G5EF15 whole entry): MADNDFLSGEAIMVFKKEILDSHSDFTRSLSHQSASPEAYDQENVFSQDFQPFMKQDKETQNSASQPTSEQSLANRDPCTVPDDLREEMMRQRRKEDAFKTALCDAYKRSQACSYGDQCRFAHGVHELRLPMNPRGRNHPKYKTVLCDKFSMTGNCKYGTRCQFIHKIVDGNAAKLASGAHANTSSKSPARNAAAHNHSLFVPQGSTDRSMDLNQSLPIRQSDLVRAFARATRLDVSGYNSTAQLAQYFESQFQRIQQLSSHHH

[15] = molecular target: T4, Zinc finger protein mex-5 (Caenorhabditis elegans, UniProt Q9XUB2); test: MEX-5/TCR-2 RNA interaction inhibitors, dose response, biochemical, C. elegans, fluorescence polarization (AID 1960)
T4 sequence (Q9XUB2 whole entry): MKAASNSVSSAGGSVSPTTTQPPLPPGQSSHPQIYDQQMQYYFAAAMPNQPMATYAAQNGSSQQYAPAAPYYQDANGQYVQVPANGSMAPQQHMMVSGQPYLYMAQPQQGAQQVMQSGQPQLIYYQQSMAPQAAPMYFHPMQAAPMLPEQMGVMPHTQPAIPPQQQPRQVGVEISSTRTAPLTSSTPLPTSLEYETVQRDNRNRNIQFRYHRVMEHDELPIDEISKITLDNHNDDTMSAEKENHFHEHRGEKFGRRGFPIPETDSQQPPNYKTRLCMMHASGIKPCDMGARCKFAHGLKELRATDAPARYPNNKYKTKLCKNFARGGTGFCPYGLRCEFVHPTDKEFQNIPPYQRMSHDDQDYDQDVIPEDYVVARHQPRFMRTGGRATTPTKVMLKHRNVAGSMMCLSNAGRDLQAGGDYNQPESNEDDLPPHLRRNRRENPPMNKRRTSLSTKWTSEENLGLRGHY

Beta-lactamase [16] = molecular target: Beta-lactamase (Salmonella choleraesuis (strain SC-B67), UniProt Q5J463)
Beta-lactamase [17] = molecular target: Beta-lactamase (Pseudomonas aeruginosa, UniProt Q79MP6);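 also: biochemical dose-response test of metallo-beta-lactamase enzyme inhibition, read out by epi-absorbance; purified recombinant IMP-1 metallo-beta-lactamase with nitrocefin as substrate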
Cytochrome P450 1A2 [18] = molecular target: T1, Cytochrome P450 1A2; remark: listed apart in the source
HeLa [19] = test: HeLa cell cytotoxicity, dose response, cytotoxicity control for MITF activator project, CellTiter-Glo luminescence, cherry-pick samples (AID 540259); type: functional, cell-based; conditions: Homo sapiens
[20] = Luminescence Cell-Based Dose Confirmation HTS to Identify Inhibitors of Platelet Dense Granule Release. [Related pubchem assays: 1663 (Primary HTS), 1678 (Summary of Project)]; type: functional
[21] = molecular target: Luciferin 4-monooxygenase (Photinus pyralis, UniProt P08659); test: firefly luciferase enzyme inhibitors, dose response, biochemical, luminescence (AID 1891)
ORF 73 = ORF 73 (Human herpesvirus 8, UniProt O40947); test: inhibitors of C-LANA binding to LBS DNA, dose response, biochemical, fluorescence polarization, cherry-picked samples (AID 504725); parameters: species or system Human gammaherpesvirus 8;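 also: fluorescence polarization of a labeled DNA duplex reporting LANA DNA binding; potency is for inhibitors that block LANA binding to the DNA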
HeLa [22] = test: HeLa cell cytotoxicity, dose response, cytotoxicity control, 24 h, cherry-picked samples (AID 504726); type: functional, cell-based; conditions: Homo sapiens;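 also: potency for cytotoxicity as loss of luminescence signal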
Trypsin = Trypsin (Sus scrofa, UniProt P00761); test: porcine trypsin inhibitors, dose response, selectivity assay for Rce1 protease inhibitor project, biochemical, quenched peptide fluorescence, cherry-pick (AID 488789)
CAAX prenyl protease 2 [23] = molecular target: CAAX prenyl protease 2 (Saccharomyces cerevisiae S288c, UniProt Q03530); type: biochemical
CAAX prenyl protease 2 [24] = molecular target: CAAX prenyl protease 2 (Homo sapiens, UniProt Q9Y256); test: human Rce1 protease inhibitors, dose response, biochemical, yeast membranes, quenched-peptide fluorescence, cherry-pick (AID 588849)
CAAX prenyl protease 2 (Homo sapiens, UniProt Q9Y256), sequence (Q9Y256 whole entry): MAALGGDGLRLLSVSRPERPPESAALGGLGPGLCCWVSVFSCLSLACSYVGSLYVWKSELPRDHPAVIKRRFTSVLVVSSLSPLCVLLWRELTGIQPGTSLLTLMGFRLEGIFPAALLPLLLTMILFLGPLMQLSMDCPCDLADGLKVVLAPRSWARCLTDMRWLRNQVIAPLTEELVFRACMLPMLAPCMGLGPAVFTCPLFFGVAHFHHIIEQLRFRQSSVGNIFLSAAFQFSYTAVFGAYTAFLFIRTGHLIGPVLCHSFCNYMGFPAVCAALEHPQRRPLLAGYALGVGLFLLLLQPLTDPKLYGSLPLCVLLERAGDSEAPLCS

CAAX prenyl protease 1 = CAAX prenyl protease 1 (Saccharomyces cerevisiae S288c, UniProt P47154); test: Ste24 protease inhibitors, dose response, biochemical, S. cerevisiae, plate reader, cherry-pick (AID 488815)
[25] = Luminescence Cell-Based Dose Response HTS to Identify Activators of Luciferase Translation or Activity in H4 […] Cells. [Related pubchem assays: 1829 (Project Summary), 1814 (Primary HTS)]; type: functional
H4 = test: Luminescence Cell-Based Dose Response HTS to Identify Activators of 5'UTR Stem-Loop Driven Prion Protein mRNA Translation in H4 Neuroglioblastoma Cells. [Related pubchem assays: 1829 (Project Summary), 1814 (Primary HTS)]; type: functional; conditions: Homo sapiens

Cytochrome P450 2C9, sequence (P11712 whole entry): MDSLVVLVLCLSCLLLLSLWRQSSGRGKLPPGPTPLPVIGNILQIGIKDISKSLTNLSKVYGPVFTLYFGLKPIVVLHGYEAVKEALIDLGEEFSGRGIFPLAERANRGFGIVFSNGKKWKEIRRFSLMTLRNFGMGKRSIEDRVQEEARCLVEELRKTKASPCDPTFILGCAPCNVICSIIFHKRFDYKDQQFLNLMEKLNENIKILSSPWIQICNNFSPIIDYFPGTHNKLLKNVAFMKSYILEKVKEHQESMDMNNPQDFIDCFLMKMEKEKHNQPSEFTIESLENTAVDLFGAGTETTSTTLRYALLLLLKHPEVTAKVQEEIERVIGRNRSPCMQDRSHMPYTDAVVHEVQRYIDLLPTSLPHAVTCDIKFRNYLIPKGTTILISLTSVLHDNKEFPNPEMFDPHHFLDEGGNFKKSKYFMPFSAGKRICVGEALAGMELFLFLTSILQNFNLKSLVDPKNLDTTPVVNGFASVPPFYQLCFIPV
Cytochrome P450 3A4, sequence (P08684 whole entry): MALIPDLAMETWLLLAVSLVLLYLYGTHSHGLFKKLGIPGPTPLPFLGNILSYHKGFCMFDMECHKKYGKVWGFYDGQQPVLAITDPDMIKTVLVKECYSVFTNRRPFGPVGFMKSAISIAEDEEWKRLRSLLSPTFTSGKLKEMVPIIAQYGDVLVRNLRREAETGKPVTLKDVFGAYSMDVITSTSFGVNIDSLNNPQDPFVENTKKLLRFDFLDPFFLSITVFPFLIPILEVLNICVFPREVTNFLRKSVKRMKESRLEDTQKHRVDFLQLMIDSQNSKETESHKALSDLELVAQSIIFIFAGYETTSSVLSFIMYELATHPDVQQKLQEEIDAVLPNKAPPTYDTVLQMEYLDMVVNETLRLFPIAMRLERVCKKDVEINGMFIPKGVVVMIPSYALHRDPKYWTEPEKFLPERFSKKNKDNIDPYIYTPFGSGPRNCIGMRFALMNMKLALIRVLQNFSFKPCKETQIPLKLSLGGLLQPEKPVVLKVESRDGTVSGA
Cytochrome P450 2D6, sequence (P10635 whole entry): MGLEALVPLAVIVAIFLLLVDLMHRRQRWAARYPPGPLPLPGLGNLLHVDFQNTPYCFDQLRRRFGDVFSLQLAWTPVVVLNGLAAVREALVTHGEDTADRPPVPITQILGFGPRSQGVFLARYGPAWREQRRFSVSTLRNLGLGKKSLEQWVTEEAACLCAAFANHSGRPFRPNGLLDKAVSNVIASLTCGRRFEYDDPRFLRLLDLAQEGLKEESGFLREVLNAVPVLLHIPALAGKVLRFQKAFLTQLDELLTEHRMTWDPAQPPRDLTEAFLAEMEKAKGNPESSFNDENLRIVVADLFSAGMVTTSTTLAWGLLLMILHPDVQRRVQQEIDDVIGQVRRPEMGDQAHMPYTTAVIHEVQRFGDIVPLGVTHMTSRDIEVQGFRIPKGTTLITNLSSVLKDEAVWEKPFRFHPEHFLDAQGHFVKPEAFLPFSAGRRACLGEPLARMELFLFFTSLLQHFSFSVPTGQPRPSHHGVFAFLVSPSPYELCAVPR

## O=C(O)c1cc(/N=N\c2ccc(S(=O)(=O)Nc3ccccn3)cc2)ccc1O
Cytochrome P450 2D6
  AC50: inactive
Cytochrome P450 3A4
  AC50: inactive
Cytochrome P450 2C9
  AC50: 7.94 µM (inconclusive)
Cytochrome P450 2C19
  AC50: inactive
Cytochrome P450 1A2 [1]
  AC50: inactive

## O=C(c1ccc2c(c1)N(Cc1ccccc1)C(=O)CS2)N1CCOCC1
Cytochrome P450 2C9
  AC50: 14.1 µM (inconclusive)
Cytochrome P450 2C19; read-out: AC50
  AC50: 28.2 µM (inconclusive)
Cytochrome P450 1A2 [1]
  AC50: inconclusive

## CC(=O)NNc1ncnc2ccccc12
[2]
  IC50: > 67.5 µM (inactive)
HEK293 [3]
  IC50: > 67.5 µM (inactive)

## CC(C)COc1ccc(C(=O)Nc2sc3c(c2C(=O)O)CC(C)(C)OC3)cc1
HEK293 [4]
  EC50: 2.59 µM (active)
[5]
  EC50: 11.3 µM (active)
HEK293 [6]
  IC50: > 20 µM (inactive)
HEK293 [7]
  IC50: 12.6 µM (active)
HEK293 [8]
  IC50: > 20 µM (inactive)
HEK293 [9]
  IC50: 5.19 µM (active)
[10]
  EC50: 220 nM (active)
[11]
  EC50: > 120 µM (not active)
[12]
  EC50: 11.2 µM (active)

## CN1C(=O)c2cccc3c(N)ccc(c23)C1=O
Keap1/Nrf2
  AC50: 839 nM (active)
[13]
  AC50: 1.59 µM (active)
[14]
  EC50: 363 nM (inconclusive)
[15]
  EC50: 116 nM (inconclusive)
Beta-lactamase [16]
  IC50: 5.56 µM (active)
Beta-lactamase [17]
  IC50: 10.5 µM (inactive)

## COc1ccc(-n2c(=O)c(-c3ccccc3)nc3cnc(N4CCN(C)CC4)nc32)cc1
Cytochrome P450 3A4
  AC50: inconclusive
Cytochrome P450 2C9
  AC50: 31.6 µM (inconclusive)
Cytochrome P450 1A2 [18]
  AC50: 20 µM (inconclusive)

## Cc1cc(/C=C2\SC(=S)N(C)C2=O)c(C)n1-c1cccc(O)c1
HEK293 [4]
  EC50: 9.29 µM (active)
HEK293 [6]
  IC50: 9.54 µM (active)
HEK293 [7]
  IC50: > 20 µM (inactive)
HEK293 [8]
  IC50: 4.55 µM (active)
HEK293 [9]
  IC50: 0.695 µM (active)
[10]
  EC50: 1100 nM (active)

## COc1ccccc1NC(=O)Nc1ccc(C(=O)N2CCCCC2)cc1
HeLa [19]
  AC50: 67 µM (active)
[20]
  EC50: 6.67 µM (active)
[21]
  EC50: 2.01 µM (active)

## CN1C(=O)C(=N)c2c3ccccc3c(O)c3c(Br)ccc1c23
Keap1/Nrf2
  AC50: 540 nM (active)
ORF 73
  AC50: 2.73 µM (active)
[13]
  AC50: 0.519 µM (active)
[14]
  EC50: 660 nM (inconclusive)
[15]
  EC50: < 60 nM (inconclusive)
HeLa [22]
  AC50: 303 µM (active)

## CS(=O)(=O)Nc1ccc(C2=NN(S(C)(=O)=O)C(c3cccs3)C2)cc1 (stereo not drawn)
Trypsin
  AC50: 4.41 µM (active)
CAAX prenyl protease 2 [23]
  AC50: 6.27 µM (active)
CAAX prenyl protease 2 [24]
  AC50: 2.38 µM (active)

## COCc1cc(C)n(CC(=O)NCc2ccccc2)c(=O)c1C#N
CAAX prenyl protease 1
  AC50: 7.22 µM (active)
CAAX prenyl protease 2 [24]
  AC50: 25.8 µM (active)

## CCn1c(C(=O)OC)cc2c1ccn2-c1ccc(F)cc1
HeLa [19]
  AC50: 91.9 µM (active)
[25]
  EC50: 69.7 µM (active)
H4
  EC50: > 120 µM (not active)

## CC1(C)Nc2ccccc2C(=O)N1c1ccc(Br)cc1
[2]
  IC50: > 67.5 µM (inactive)
HEK293 [3]
  IC50: > 67.5 µM (inactive)
